Tests used:
[1] = tested on: I/R-induced gastric lesions; assay: Ischemia-reperfusion (I/R)-induced gastric lesion model; format: in vivo, Male Wistar rats
Method: (§1) Male Wistar rats, weighing 180-220 grams were fasted for 24 hours before subjecting to experimentation were employed in all studies. The animals were divided into groups for the following types of induced gastric lesions: ethanol-; aspirin (acetylsalicylic acid; ASA)-; stress-; and ischemia-reperfusion (I/R)-induced gastric lesions. In the first group, gastric lesions were produced by intragastric (i.g.) application of ethanol (75%), in the second group by i.g. application of acidified ASA (125 mg/kg), in the third group by animal exposure to 3.5 hours of water immersion (and restraint stress (WRS), in the fourth group by ischemia (by clamping celiac artery for 30 minutes followed by release of the clamp (reperfusion for 3 hours) (I/R).
(§2) The following experiments were designed to assess the therapeutic effect of 1-MNA on induced gastric lesions.
(§3) To assess gastric blood flow (GBF) laser Doppler flowmeter (Laserflo, model BPM 403A, Blood Perfusion Monitor, Vasamedics, St. Paul, Minn., USA) was used. The animals were anaesthetized with Vetbutal 50 mg/kg (Biowet, Pu^3awy, Poland), then the abdomen was opened and the stomach was exposed to assess the GBF. Blood flow was measured on anterior and posterior wall of stomach. The mean values of these measurements were calculated and expressed as percent change from value recorded in the intact mucosa.
(§4) To establish the number and area of gastric lesions, computerized planimetry (Morphomat, Carl Zeiss, Berlin, Germany) was used. Results are expressed as mm.

[2] = tested on: WRS-induced gastric lesions; assay: Water immersion and restraint stress (WRS)-induced gastric lesion model; format: in vivo, Male Wistar rats; details: for effect on the protection by 1-MNA with respect to gastric lesions / effect on the protective property of 1-MNA as measured by mean lesion number and plasma levels of IL-1β and TNFα: COX inhibitor pretreatment plus 1-MNA; for lesion numbers after COX inhibitor pretreatment before 1-MNA and WRS: indomethacin 5 mg/kg i.p., SC-560 5 mg/kg i.g. or rofecoxib 10 mg/kg i.g., versus absence of inhibitor; for effect on gastroprotection and the accompanying rise in the GBF induced by 1-MNA: summary of inhibitor experiments
Method: as §1, §2, §3, §4
(§5) A venous blood sample was withdrawn from the vena cava into EDTA-containing vials in order to determine the plasma level of interleukin-1 beta (IL-1β) and tumor necrosis factor alpha (TNFα) by ELISA technique (BioSource International, Camarillo, Calif., USA).

[3] = tested on: ASA-induced gastric lesions; assay: Acidified ASA-induced gastric lesion model; format: in vivo, Male Wistar rats
Method: as §1, §2, §3, §4
For lipid peroxydation in investigated groups, the determination of the levels of malondialdehyde (MDA) and 4 hydroxynonenal (4-HNE) was carried out and their levels were used as indicators of lipid peroxidation. The procedure of MDA and 4-HNE determination was following: 600 mg of gastric mucosa was excised. Then […] 0.5 M BHT (butylated hydroxytoluene) was added in order to prevent sample oxidation. This sample was subsequently homogenized in 20 mM Tris for 15 sec. in pH 7.4. The homogenate was centrifuged (3,000 g at 4° C. for 10 minutes). Obtained clear supernatant was stored at −80° C. prior to testing. The colorimetric assay for lipid peroxidation (Bioxytech LPO-586, Oxis, Portland, USA) was used to determine the MDA and 4-HNE tissue concentration. This assay is based on the reaction of a chromogenic reagent N-methyl-2-phenylindole with MDA and 4-HNE at 45° C. This reaction yields a stable chromophore with maximal absorbance at 586 nm. This absorbance was measured by spectrophotometer Marcel s300, Warsaw, Poland. Results were expressed as nanomole per gram of tissue (nmol/g).
To determine activity of superoxide dismutase (SOD), a sample of gastric mucosa was taken, as described above. The calorimetric assay for assessment of SOD activity (Bioxytech, SOD-525, Oxis, Portland, USA) was used. This method is based on the SOD-mediated increase in the rate of autooxidation of tetrahydrobenzofluorene in aqueous alkaline solution to yield a chromophore with maximum absorbance at 525 nm. This absorbance was measured by spectrophotometer Marcel s300, Warsaw, Poland. Outcomes were expressed as units per gram of tissue (U/g).
The next set of experiments were designed to measure myeloperoxidase (MPO), malondialdehyde (MDA) and 4-hydroxynonenal (4-HNE), and superoxide dismutase (SOD) activities in rat stomach exposed to acidified ASA as indicators of the prognosis of gastric mucosa injury. To evaluate the inflammatory changes, myeloperoxidase (MPO) activity in the gastric mucosa was measured. MPO activity was measured by enzyme assay. MDA and 4-HNE in tissue are accepted as major products of lipid peroxidation and thus are considered as indicators of mucosa injury by reactive oxygen species (ROS). Organisms have several enzymatic systems that scavenge ROS and prevent their destructive action. The major antioxidative enzyme is superoxide dismutase (SOD).

[4] = tested on: diabetes and stress-induced gastric damage; assay: Combined diabetes and stress-induced gastric damage model; format: in vivo, rats
Source text: as §5
The next set of experiments was designed to assess the therapeutic effects of 1-MNA in a combined diabetic and stress-induced gastric damage model.
Insulin-dependent diabetes exerts various influences on gastric functions, such as acid secretion and gastric emptying. It has observed that aggravation of gastric mucosal ulcerogenic responses occurs in diabetic rats. Furthermore, deleterious influence of diabetes on the healing of gastric mucosal lesions has been observed in diabetic rats.

[5] = tested on: acetic acid ulcer; assay: Acetic acid ulcer area and GBF in rats with and without rofecoxib; format: in vivo
Source text: The following experiments were designed to assess the effects of 1-MNA on acetic acid ulcer area and GBF in rats administered with and without a selective COX-2 inhibitor (e.g., rofecoxib).

[6] = tested on: gastric acid output; assay: Gastric acid output in rats having chronic gastric fistula (GF); format: in vivo
Method: The following experiments were designed to compare the effects of pretreatment with vehicle and 1-MNA or NA on stress-induced gastric lesions and the accompanying changes in gastric blood flow (GBF) and gastric tissue activities of MDA and SOD and plasma pro-inflammatory cytokine IL-1β and TNF-α levels. These sets of experiments were based on the observation that 1-MNA was able to reduce the gastric output in rats having chronic gastric fistula (GF). Rats with chronic GF were administered with 1-MNA, NA, or a vehicle control.

[7] = tested on: ethanol-induced gastric lesions; assay: Ethanol-induced gastric lesion model; format: in vivo, Male Wistar rats
Method: as §1, §2, §3, §4

[8] = ischemia 30 minutes, reperfusion 3 hours, pretreatment
[9] = WRS 3.5 hours, pretreatment 30 minutes prior
[10] = acidified ASA 125 mg/kg i.g., pretreatment
[11] = comparison of protective properties
[12] = ethanol (75%) i.g., pretreatment
[13] = WRS, administration of 16,16-dimethyl PGE2

C[n+]1cccc(C(N)=O)c1 [1-MNA, 1-methyl nicotinamide]
gastric blood flow [1, 8]: increased gastric blood flow | lesion number [1, 8]: decreased lesion number | gastric blood flow [2, 9]: increased gastric blood flow | lesion number [2, 9]: decreased lesion number | plasma level of IL-1β ([2]; WRS model): decrease the plasma levels | plasma level of TNFα ([2]; WRS model): decrease the plasma levels | reduction of lesion number compared with NA ([2]; WRS, 1-MNA versus NA): more effectively than NA | increase of gastric blood flow compared with NA ([3]; 1-MNA versus NA): more effectively than NA | reduction of lesion number compared with NA ([3]; 1-MNA versus NA): more effectively than NA | levels of 4-HNE in gastric mucosa ([3]; ASA-induced lesions): decreasing | levels of MDA in gastric mucosa ([3]; ASA-induced lesions): decreasing | levels of MPO in gastric mucosa ([3]; ASA-induced lesions): lowering the levels of MPO | levels of SOD in gastric mucosa ([3]; ASA-induced lesions): increasing the levels of SOD | gastric blood flow [3, 10]: increased gastric blood flow | lesion number [3, 10]: decreased lesion number | increasing GBF, compared with ranitidine, NO-ASA and SIN-1 [3, 11]: equally effective | increasing luminal NO, compared with ranitidine, NO-ASA and SIN-1 [3, 11]: equally effective | reducing mean lesion number, compared with ranitidine, NO-ASA and SIN-1 [3, 11]: equally effective | mean lesion number [4]: reduce mean lesion number | plasma level of IL-1β [4]: decrease | plasma level of TNFα [4]: decrease | GBF in the ulcer area ([5]; rats given rofecoxib): increase the GBF in the ulcer area | ulcer area ([5]; rats given rofecoxib): reduce the ulcer area in rats given rofecoxib | GBF in the ulcer area ([5]; without rofecoxib): increase the GBF in the ulcer area | ulcer area ([5]; without rofecoxib): reduce the ulcer area | dose dependence of the ability to inhibit gastric output [6]: increased with increasing dosage | suppression of gastric acid output compared with NA ([6]; 1-MNA versus NA): more effectively than NA | gastric acid output ([6]; 1-MNA, NA or vehicle control): decrease the gastric acid output | gastric blood flow [7, 12]: increased gastric blood flow | lesion number [7, 12]: decreased lesion number | increase of gastric blood flow compared with NA ([7]; ethanol model, 1-MNA versus NA): more effectively than NA | reduction of lesion number compared with NA ([7]; ethanol model, 1-MNA versus NA): more effectively than NA | mean lesion number in animals pretreated with either indomethacin, SC-560, or rofecoxib ([7]; ethanol model, presence of 1-MNA): significantly reduced

CCCCC(C)(C)[C@H](O)/C=C/[C@H]1[C@H](O)CC(=O)[C@@H]1C/C=C\CCCC(=O)O [16,16-dimethyl PGE2]
gastric damage induced by either indomethacin, SC-560, or rofecoxib [2, 13]: successful in preventing the gastric damage | mean lesion number [2, 13]: sufficient to decrease the mean lesion number

CS(=O)(=O)c1ccc(C2=C(c3ccccc3)C(=O)OC2)cc1 [rofecoxib]
effect on the protection by 1-MNA with respect to gastric lesions ([2]; WRS): significantly inhibited the protection by 1-MNA | effect on the protective property of 1-MNA as measured by mean lesion number and plasma levels of IL-1β and TNFα ([2]; WRS): significantly inhibited the protective property of 1-MNA | lesion numbers after COX inhibitor pretreatment before 1-MNA and WRS [2]: increase of lesion numbers | effect on gastroprotection and the accompanying rise in the GBF induced by 1-MNA [2]: significantly attenuated | number of lesions after COX inhibitor pretreatment in the absence of 1-MNA ([7]; indomethacin 5 mg/kg i.p., SC-560 5 mg/kg i.g. or rofecoxib 10 mg/kg i.g., versus no inhibitor): increased the number of lesions

Oc1cc2c(cc1O)CN(C(=S)NCCc1ccc(Cl)cc1)CCC2 [capsazepine]
effect on the protective property of 1-MNA as measured by mean lesion number and gastric blood flow ([2]; WRS, capsazepine 5 mg/kg s.c.): reduced the protective property of 1-MNA | effect on gastroprotection and the accompanying rise in the GBF induced by 1-MNA [2]: significantly attenuated

N=C(NCCC[C@H](N)C(=O)O)N[N+](=O)[O-] [L-NNA, NG-nitro-L-arginine, reference compound]
effect on the therapeutic effects of 1-MNA on gastric lesions ([1]; L-NNA 20 mg/kg i.p.): reverse the therapeutic effects of 1-MNA

COc1ccc2c(c1)c(CC(=O)O)c(C)n2C(=O)c1ccc(Cl)cc1 [indomethacin]
effect on the protection by 1-MNA with respect to gastric lesions ([2]; WRS): significantly inhibited the protection by 1-MNA | effect on the protective property of 1-MNA as measured by mean lesion number and plasma levels of IL-1β and TNFα ([2]; WRS): significantly inhibited the protective property of 1-MNA | lesion numbers after COX inhibitor pretreatment before 1-MNA and WRS [2]: increase of lesion numbers | effect on gastroprotection and the accompanying rise in the GBF induced by 1-MNA [2]: significantly attenuated

calcitonin gene related peptide [CGRP]
effect on the deleterious effects of capsazepine ([2]; WRS, addition of CGRP): counter the deleterious effects of casazepine | effect on the deleterious effects of capsaicin-induced denervation ([2]; WRS, addition of CGRP to 1-MNA in denervated rats): counteracted the deleterious effects of capsaicin-induced denervation

COc1ccc(-n2nc(C(F)(F)F)cc2-c2ccc(Cl)cc2)cc1 [SC-560]
effect on the protection by 1-MNA with respect to gastric lesions ([2]; WRS): significantly inhibited the protection by 1-MNA | effect on the protective property of 1-MNA as measured by mean lesion number and plasma levels of IL-1β and TNFα ([2]; WRS): significantly inhibited the protective property of 1-MNA | effect on gastroprotection and the accompanying rise in the GBF induced by 1-MNA [2]: significantly attenuated

COc1cc(CNC(=O)CCCC/C=C/C(C)C)ccc1O [capsaicin]
effect of capsaicin denervation on the protection induced by 1-MNA with respect to gastric lesions ([2]; WRS, capsaicin 125 mg/kg s.c.): significantly inhibit the protection induced by 1-MNA | effect on gastroprotection and the accompanying rise in the GBF induced by 1-MNA [2]: significantly attenuated
